Laboratory results: BindingDB's records for doi:10.1021/acs.jnatprod.9b00663 (University of Utah, 2019)

Target: Low molecular weight phosphotyrosine protein phosphatase (Homo sapiens) (UniProt P24666)
Experiment: Inhibition of LMWPTP (unknown origin) using DiFMUP as substrate incubated for 30 mins followed by substrate addition at pH 6.5 by standard phosphatase assay based fluorescence analysis

Low molecular weight phosphotyrosine protein phosphatase (Homo sapiens), sequence (P24666 whole entry, looked up): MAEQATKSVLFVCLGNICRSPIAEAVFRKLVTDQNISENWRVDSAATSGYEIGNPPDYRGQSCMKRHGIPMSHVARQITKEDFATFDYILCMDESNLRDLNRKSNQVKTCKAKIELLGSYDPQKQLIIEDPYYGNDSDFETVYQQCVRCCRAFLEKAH

Row | IC50 | SMILES
1 | > 100 µM | COc1c(C=O)c2c(c3c1CC(C)(C)C3)C(=O)OC(O)C2 (configuration not stated) [3-Hydroxy-6-methoxy-8,8-dimethyl-1-oxo-1,3,4,7,8,9-hexahydro-cyclopenta[h]isochromene-5-carbaldehyde]
2 | > 100 µM | CC1(C)Cc2c(O)c(C=O)c3c(c2C1)C(=O)OC(O)C3 (configuration not stated) [Illudalic acid]
